Legend:
[1] = system: dextran sodium sulfate (DSS)-induced colitis; test: Dextran sodium sulfate (DSS)-induced colitis model, disease activity index (DAI); format: in vivo, mice (C57Bl/6NHsd); details: for anti-IBD activity: disease activity index (DAI): once daily oral
Experimental: Colitis was induced using either 2.5% DSS (FIG. 1A, FIG. 1B, and FIG. 1C) or 4.0% DSS (FIG. 1D, FIG. 1E, FIG. 1F, FIG. 1G, and FIG. 1H) resulting in the characteristic development of diarrhea, rectal bleeding and body weight loss. These parameters were evaluated daily, scored and summated to compute a disease activity index (DAI). Mice received once daily oral treatment with test article or vehicle beginning on Study Day 0 and continuing through Study Day 7. […] All data depicted as mean+/−SEM. 2-way ANOVA, *p<0.05, **p<0.01, ***p<0.001;
Colitis was induced using 4.0% DSS resulting in the characteristic development of diarrhea, rectal bleeding and body weight loss. These parameters were evaluated daily, scored and summated to compute a disease activity index (DAI). Mice received once daily oral treatment with test article or vehicle beginning on Study Day 0 and continuing through Study Day 6. […] All data depicted as mean+/−SEM. 2-way ANOVA, *p<0.05, **p<0.01, ***p<0.001;
(§1) Six-week old male C57Bl/6NHsd mice were challenged with 4.0% DSS in drinking water from Study Day 0-5 followed by exposure to freshwater, inducing severe acute colitis. Oral (S)-LTP592 was administered once daily beginning on study day 0 at 1 mg/kg, 10 mg/kg and 100 mg/kg 2-PMPA molar equivalent doses. (FIG. 4A) 100 mg/kg eq. […] (S)-LTP592, while GCPII was only 40% inhibited at the non-efficacious dose of 1 mg/kg eq. (n=8/group; **p<0.01 2-tailed t-test). (FIG. 4C) Strikingly, 100 mg/kg eq. […] (FIG. 4D, FIG. 4E, and FIG. 4F) Efficacy of 100 mg/kg eq. (S)-LTP592 in the DSS-colitis model was driven by improvements in (FIG. 4C) stool score and (FIG. 4D) bleeding score (n=15/group; ***p<0.001, *p<0.05 2-way ANOVA);
(§2) Six-week old male C57Bl/6NHsd mice were challenged with 4.0% DSS in drinking water from study day 0-6 followed by exposure to freshwater. Oral (S)-LTP592 was administered once daily beginning on study day 0 at 100 mg/kg 2-PMPA molar equivalent doses. (FIG. 5A, FIG. 5B, and FIG. 5C) 100 mg/kg eq. […] (FIG. 5D, FIG. 5E, FIG. 5F, and FIG. 5G) A subset of mice (n=8/group) were euthanized on study day 5, prior to fulminant colitis. Their colons were harvested and processed for flow cytometry. […] All DSS-induced changes in myeloid inflammatory cell populations were attenuated by (S)-IBD3540 treatment (n=8-9/group, **p<0.01, *p<0.05, 2-tailed t-test).
Six- to eight-week-old male C57BM6NHsd mice were acquired from Harlan Laboratories/Envigo (Indianapolis, IN). Animals were housed in the Johns Hopkins animal facility under controlled temperature (25° C.) and photoperiod (12-hour-light/12-hour-dark cycle) with access to standard diet and water (or specified DSS-containing drinking water) ad libitum. All animal studies were approved by the Animal Care and Use Committee of Johns Hopkins University, Baltimore, MD and adhered to all of the applicable institutional and governmental guidelines for the humane treatment of laboratory animals. Mice were housed 4-5 per cage and allowed to acclimate to their environment for at least 5 days before inclusion in experiments. Mice (n=5-30/group) were randomized by body weight into equivalent experimental groups: (a) DSS with vehicle or (b) DSS with test article. Acute colitis was induced by administration of 2.5%-4.0% (w/v) DSS (MW 40,000-50,000; Affymetrix Santa Clara, CA) in the drinking water for 5 days, followed by exposure to freshwater for two days. Daily oral (PO) dosing of vehicle or test article was initiated on study day 0 and was continued until sacrifice on study day 7. […]

[2] = system: myeloid inflammatory cell populations in colon; test: Flow cytometry of colonic lamina propria mononuclear cells in DSS colitis; format: in vivo, mice; details: 4.0% DSS, 100 mg/kg eq. oral, study day 5
Experimental: as §2
On DSS study day 5, a subset of mice (n=8-9/group) were euthanized and colons were processed for flow cytometry. Specifically, the distal 3 cm of colon was separated, mesenteric fat dissected away and intestinal contents removed. Then colon was transected longitudinally, washed with PBS, and minced thoroughly. Minced colon tissues were transferred into 5 ml HBSS with 10 mM HEPES containing 5% FBS and 0.2 mg/ml collagenase D (Sigma). Tissues were digested at 37° C. for 20 min with constant agitation (250 r.p.m.), then vigorously vortexed for 20 s. The resulting cell suspension containing LPMCs was filtered through a 70-μm nylon cell strainer and washed with 10 ml PBS. […]

recombinant human GCPII = recombinant human GCPII (Homo sapiens, UniProt Q04609); test: GCPII inhibition, radiosubstrate based assay; format: biochemical; details: GCPII IC50 ratio, (S)- vs (R)-enantiomer
recombinant human GCPII, sequence (Q04609 whole entry): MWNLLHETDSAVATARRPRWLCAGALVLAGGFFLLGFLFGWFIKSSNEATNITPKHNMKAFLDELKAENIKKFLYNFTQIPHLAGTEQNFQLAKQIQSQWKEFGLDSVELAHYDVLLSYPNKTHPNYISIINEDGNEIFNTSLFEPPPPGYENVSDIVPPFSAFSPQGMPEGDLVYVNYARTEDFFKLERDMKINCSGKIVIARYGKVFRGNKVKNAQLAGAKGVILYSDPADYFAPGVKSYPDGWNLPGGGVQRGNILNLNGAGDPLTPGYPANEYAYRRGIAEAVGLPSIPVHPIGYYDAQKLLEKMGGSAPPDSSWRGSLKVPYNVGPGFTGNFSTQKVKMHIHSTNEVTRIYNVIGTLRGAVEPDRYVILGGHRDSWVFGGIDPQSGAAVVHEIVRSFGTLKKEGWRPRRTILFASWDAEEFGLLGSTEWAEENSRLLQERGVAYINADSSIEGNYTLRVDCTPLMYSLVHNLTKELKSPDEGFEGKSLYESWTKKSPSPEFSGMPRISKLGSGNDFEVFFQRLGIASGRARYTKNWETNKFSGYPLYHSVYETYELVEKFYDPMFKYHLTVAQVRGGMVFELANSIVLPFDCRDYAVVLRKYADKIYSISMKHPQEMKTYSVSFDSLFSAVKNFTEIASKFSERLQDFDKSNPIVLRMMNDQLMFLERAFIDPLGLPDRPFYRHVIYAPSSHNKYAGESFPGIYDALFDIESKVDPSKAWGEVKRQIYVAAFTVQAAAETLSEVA
Experimental: FIG. 3A, FIG. 3B, FIG. 3C, and FIG. 3D show IC50 values for selected bile acid GCPII inhibitor conjugates. IC50s were determined for selected inhibitors using a previously described radiosubstrate based assay employing recombinant human GCPII. Rojas et al., 2002.
Glutamate Carboxypeptidase II (GCPII) is a metallopeptidase that catalyzes the hydrolysis of N-acetylated aspartate-glutamate (NAAG) to N-acetyl aspartate (NAA) and glutamate and cleaves terminal glutamate moieties sequentially from folate polyglutamate (Ristau et al., 2013; Mesters et al, 2006; Slusher et al, 2013). In certain embodiments, the presently disclosed compounds of formula (I) are GCPII inhibitors. As used herein, a GCPII inhibitor is a molecule that decreases or inhibits the activity of GCPII. The modulation of the activity of GCPII may be detected by use of an assay for the intrinsic N-acetylated alpha-linked acidic dipeptidase (AALADase) activity of GCPII (Tang et al, 2003; Robinson et al 1987: Lupoid et al., 2002; U.S. Patent App. Pub. No. 20110064657). Inhibition curves may be determined using semi-log plots and IC50 values determined at the concentration at which enzyme activity was inhibited by 50%.

GCPII = target: T1, GCPII (Mus musculus, UniProt O35409); test: GCPII enzymatic activity in murine colon tissue (radioenzymatic assay); format: in vivo, mice; details: colon collected 4-hour post dose on study day 6
T1 construct: from tissue; host or cells: mouse proximal colon
T1 sequence (O35409 whole entry): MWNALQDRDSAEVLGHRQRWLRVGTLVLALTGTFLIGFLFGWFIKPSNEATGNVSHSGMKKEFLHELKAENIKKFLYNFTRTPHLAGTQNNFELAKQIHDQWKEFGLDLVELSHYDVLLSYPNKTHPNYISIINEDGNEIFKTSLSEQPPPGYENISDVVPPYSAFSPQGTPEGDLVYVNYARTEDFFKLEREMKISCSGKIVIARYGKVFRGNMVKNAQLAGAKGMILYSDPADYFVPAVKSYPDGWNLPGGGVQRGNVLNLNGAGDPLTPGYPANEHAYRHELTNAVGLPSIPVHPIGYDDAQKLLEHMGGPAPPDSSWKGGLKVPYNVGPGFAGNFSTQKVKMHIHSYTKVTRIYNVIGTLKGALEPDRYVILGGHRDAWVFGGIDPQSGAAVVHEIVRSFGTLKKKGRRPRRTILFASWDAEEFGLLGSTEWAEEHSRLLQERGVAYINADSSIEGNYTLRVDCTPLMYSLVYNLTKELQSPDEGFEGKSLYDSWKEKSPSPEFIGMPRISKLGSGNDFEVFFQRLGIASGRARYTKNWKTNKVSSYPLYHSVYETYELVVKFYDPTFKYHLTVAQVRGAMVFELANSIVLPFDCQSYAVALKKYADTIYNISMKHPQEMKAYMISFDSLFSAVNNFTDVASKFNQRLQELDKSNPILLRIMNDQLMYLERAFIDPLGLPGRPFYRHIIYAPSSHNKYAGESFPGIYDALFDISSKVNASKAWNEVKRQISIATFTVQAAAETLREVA
Experimental: as §1
A 5-mm length location-matched segment of proximal colon was harvested and flash-frozen following euthanasia on study day 6 of DSS-induced colitis, 4-hours after the final dose with vehicle or compound. Glutamate carboxypeptidase activity was measured using a radioenzymatic assay that was optimized and described previously. Rojas et al., 2002; Robinson et al., 1987.

[3] = 2.5% or 4.0% DSS, Study Day 0-7, 10 to 100 mg/kg 2-PMPA molar equivalent dose, DAI on Study Days 6 and 7
[4] = 4.0% DSS, 100 mg/kg eq. oral, study day 6
[5] = 4.0% DSS, Study Day 0-6, DAI on Study Days 4 through 6

## C[C@H](CCC(=O)OCOC(=O)CCC(CP(=O)(O)O)C(=O)O)C1CCC2C3CC[C@@H]4C[C@H](O)CC[C@]4(C)C3CC[C@@]21C (mixture of isomers) [LTP582, 5-((((4R)-4-((3R,10S,13R)-3-Hydroxy-10,13-dimethylhexadecahydro-1H-cyclopenta[a]phenanthren-17-yl)pentanoyl)oxy)methoxy)-5-oxo-2-(phosphonomethyl)pentanoic acid]
[1]; [3]
  anti-IBD activity: disease activity index (DAI): inactive

## C[C@H](CCC(=O)OCOC(=O)CCC(CP(=O)(O)O)C(=O)O)C1CCC2C3C(C[C@H](O)[C@@]21C)[C@@]1(C)CC[C@@H](O)C[C@H]1C[C@H]3O (mixture of isomers) [LTP588, 5-Oxo-2-(phosphonomethyl)-5-((((4R)-4-((3R,7R,10S,12S,13R)-3,7,12-trihydroxy-10,13-dimethylhexadecahydro-1H-cyclopenta[a]phenanthren-17-yl)pentanoyl)oxy)methoxy) pentanoic acid]
[1]; [3]
  anti-IBD activity: disease activity index (DAI): inactive

## C[C@H](CCC(=O)OCOC(=O)CC[C@H](CP(=O)(O)O)C(=O)O)C1CCC2C3CC[C@@H]4C[C@H](O)CC[C@]4(C)C3C[C@H](O)[C@@]21C (stereo partly drawn) [(S)-LTP592]
[1]; 4.0% DSS, 100 mg/kg eq. oral
  bleeding score: improvements
  stool score: improvements
[1]; [4]
  colon histology (scored by a blinded pathologist): significantly improved
  colon length: normalization of colon length
  number and depth of ulcerations and degree of inflammatory infiltration: reduced
[1]; 4.0% DSS, oral once daily, 1 mg/kg eq.
  efficacy in DSS colitis: non-efficacious
[1]; 4.0% DSS, oral once daily, 10 mg/kg eq.
  efficacy in DSS colitis: effective
[1]; 4.0% DSS, oral once daily, 100 mg/kg eq., as early as study day 3
  colitis severity (DAI): significantly decreased
[2]
  DSS-induced changes in myeloid inflammatory cell populations (CD11b+ white blood cells, neutrophils, monocytes, transitioning monocytes): attenuated
Recombinant human GCPII
  potency relative to (R)-LTP592: 150 fold
GCPII; 1 mg/kg eq. oral
  inhibition of GCPII enzymatic activity in colon tissue: 40%
GCPII; 10 mg/kg eq. oral
  inhibition of GCPII enzymatic activity in colon tissue: > 75%
GCPII; 100 mg/kg eq. oral
  inhibition of GCPII enzymatic activity in colon tissue: > 75%

## C[C@H](CCNC(=O)CCC(CP(=O)(O)O)C(=O)O)[C@H]1CCC2C3C(CC[C@@]21C)[C@@]1(C)CC[C@@H](O)C[C@H]1C[C@@H]3O (stereo partly drawn) [IS-101-020, 5-(((3R)-3-((3R,7S,10S,13R,17R)-3,7-Dihydroxy-10,13-dimethylhexadecahydro-1H-cyclopenta[a]phenanthren-17-yl)butyl)amino)-5-oxo-2-(phosphonomethyl)pentanoic acid]
[1]; [3]
  anti-IBD activity: disease activity index (DAI): significant reductions in DAI

## C[C@H](CCNC(=O)CCC(CP(=O)(O)O)C(=O)O)[C@H]1CCC2C3CC[C@@H]4C[C@H](O)CC[C@]4(C)C3C[C@H](O)[C@@]21C (stereo partly drawn) [IS-101-077, 5-(((3R)-3-((3R,10S,12S,13R,17R)-3,12-Dihydroxy-10,13-dimethylhexadecahydro-1H-cyclopenta[a]phenanthren-17-yl)butyl)amino)-5-oxo-2-(phosphonomethyl)pentanoic acid]
[1]; [3]
  anti-IBD activity: disease activity index (DAI): significant reductions in DAI

## CC(C)C[C@H](NC(=O)N[C@@H](CCC(=O)OCOC(=O)CC[C@@H](C)[C@H]1CCC2C3CC[C@@H]4C[C@H](O)CC[C@]4(C)C3C[C@H](O)[C@@]21C)C(=O)O)C(=O)O (stereo partly drawn) [IS-102-138, (2S,6S,16R)-6-Carboxy-16-((3R,10S,12S,13R,17R)-3,12-dihydroxy-10,13-dimethylhexadecahydro-1H-cyclopenta[a]phenanthren-17-yl)-2-isobutyl-4,9,13-trioxo-10,12-dioxa-3,5-diazaheptadecanoic acid]
[1]; [5]
  anti-IBD activity: disease activity index (DAI): significant reductions in DAI

## C[C@H](CCC(=O)OCOC(=O)CCC(CP(=O)(O)O)C(=O)O)C1CCC2C3C(CC[C@@]21C)[C@@]1(C)CC[C@@H](O)C[C@H]1C[C@@H]3O (stereo partly drawn) [LTP1054, 5-((((4R)-4-((3R,7S,12S,13R)-3,12-Dihydroxy-10,13-dimethylhexadecahydro-1H-cyclopenta[a]phenanthren-17-yl)pentanoyl)oxy)methoxy)-5-oxo-2-(phosphonomethyl) pentanoic acid]
[1]; [3]
  anti-IBD activity: disease activity index (DAI): inactive

## C[C@H](CCC(=O)OCOC(=O)c1ccc(CC(CCC(=O)NO)C(=O)O)cc1)C1CCC2C3CC[C@@H]4C[C@H](O)CC[C@]4(C)C3C[C@H](O)[C@@]21C (some centres unmarked) [TT-220420]
[1]; [5]
  anti-IBD activity: disease activity index (DAI): significant reductions in DAI

— patent publication US12698306B2, “Bile acid-GCPII inhibitor conjugates to treat inflammatory diseases, including inflammatory bowel disease (IBD)” (The Johns Hopkins University, priority 2020, dated 2026)
